Patent US20050267020A1, “Polypeptides derived from inducible hsp70 and pharmaceutical compositions containing the same” (priority 2001, published 2005)

Experiments:
[1] = molecular target: T1, HLA-A*0201 (Homo sapiens, UniProt P04439, D140Y/D185E/D98H/E176V/E277Q/G131W/G231S/I119V/I121R/I166T/I218V/L300P/L318F/N151K/N90K/P208A/P217A/Q86G/Q94H/R138H/R169H/T345S); assay: Measurement of peptide relative affinity to HLA-A*0201 on T2 cells; format: binding; conditions: HLA-A*0201, T2 cells; ratio to reference peptide HIVpol 589; the lower the RA-value, the stronger the binding
T1 construct: Tap−/− cells expressing the studied HLA-class I molecule; endogenous in cells; host or cells: T2 cells (Tap-/-, HLA-A*0201)
Protocol: Measurement of Peptide Relative Affinity to HLA class I. Tap−/− cells expressing the studied HLA-class I molecule (3×10^5 cells/mL) were incubated with various concentrations of peptides ranging from 100 μM to 0.1 μM in serum-free RPMI 1640 medium supplemented with 100 ng/ml of human β-2m at 37° C. for 16 hours. Cells were then washed twice and stained with the specific anti-class I mAb followed by FITC conjugated goat anti mouse Ig mAb to quantify the expression of HLA-A*0201. For each peptide concentration, the HLA-specific staining was calculated as the % of the staining obtained with 100 μM of the reference peptide. The relative affinity (RA) is determined as: RA=(Concentration of each peptide that induces 20% of HLA expression/Concentration of the reference peptide that induces 20% of HLA expression). The lower the RA-value, the stronger is the peptide binding to HLA. The mean RA value for each peptide is determined from at least three independent experiments. […]
(§1) The affinity of each peptide was assayed experimentally by determination of the Relative Affinity: the necessary peptide dose to stabilise a reference quantity of HLA-A*0201 molecules at the surface of T2 cells; and the stability of each peptide was assayed by determination of the half-life of the peptide/HLA-A*0201 molecule complex (DC50: dissociation complex 50).

[2] = system: HHD mice; assay: Generation of CTL in HLA-A*0201 transgenic HHD mice (immunogenicity); format: in vivo, mouse
Protocol: Generation of CTL in HLA-transgenic mice. HLA-transgenic mice were injected subcutaneously at the base of the tail with 100 μg of peptide emulsified in incomplete Freund's adjuvant (IFA) in the presence of 140 μg of the I-A^b restricted HBVcore-derived T-helper epitope (128-140; sequence TPPAYRPPNAPIL). After 11 days, spleen cells (5×10^7 cells in 10 mL) were stimulated in vitro with peptide (10 μM). On day 6 of culture, the bulk responder populations were tested for specific cytotoxicity. Upon response, the CTL line was then weekly re-stimulated in vitro with 20×10^6 35Gy irradiated spleen cells in the presence of 1 to 0.1 μM peptide and 50 U/mL IL-2 (Proleukin, Chiron Corp.). Cytotoxicity was assayed 6 days after the last stimulation and TNF-α secretion 11-13 days after, with the addition of 50 U/mL IL-2 on day 7. HHD mice transgenic for HLA-A*0201 were used. B7B7 Kd mice and mice transgenic for HLA-A*0301 are used for the study of the HLA-B*0701 and HLA-A*0301 restricted peptides respectively.

[3] = system: MCF-7 and SAOS tumor cell lines; assay: Recognition by murine CTL of epitopes at the surface of human tumor cells, TNF-α secretion assay; format: cell-based; conditions: HLA-A*0201+ Hsp70+ tumor cells
Description: CTL recognition of tumoral cells is expressed as CTL secretion of TNF-α dosed in supernatant (X Axis, TNF-α ranges from 0 to 1000 pg/ml) after contact with the cells. Upper to lower bars represent the different cells and reagents in contact with CTL, respectively: 2 negative controls (M113, M44), SAOS, MCF-7, MCF-7 blocked with anti-class I (w6/32) antibody before mixed culture, and MCF-7 blocked with an irrelevant antibody before mixed culture.
(§2) TNF-α Secretion Assay. Transfected COS cells on day 4 or 10^5 target tumor cells were plated in 50 μL RPMI 10% FCS and when necessary incubated with 10 μM peptide for 1 hour. In blocking experiments, anti-HLA class I antibody w6/32 or an irrelevant antibody were incubated with target cells for 1 h30. 5×10^4 T cells were then added in 50 μL RPMI 10% FCS and incubated for 6 hours. Each condition was tested in quadruplicates. 50 μL of the supernatant was collected. Standard dilutions were prepared in 50 μL with final doses of TNF-α (kindly provided by I. Apfler, Bender Wien, Austria) ranging from 10^4 to 0.08 pg/mL. On both the supernatants and the standards were added 50 μL of 3×10^4 TNF-α sensitive WEHI-164c13 cells. They were incubated for 16 hours at 37° C. (23). Inhibition of cell proliferation was evaluated by the MTT colorimetric method. Briefly, 50 μL of MTT at 2.5 mg/mL (Sigma-Aldrich) was added and incubated for 4 hours at 37° C. Cells were then lyzed with 100 μL of a pH4.7 33% N,N-dimethyl formamide (Sigma-Aldrich) 20% SDS solution in water. Two hours after cells lysis, OD was measured at 550 nm on a Dynatech MR5000 spectrophotometer. TNF-α quantitation was calculated by linear interpolation with the standard dilutions.
We studied whether the over-expression of Hsp70 described in certain tumor cell lines was high enough to enable these epitopes to be presented at the surface of tumor cells. We addressed this question with our already available high-avidity murine CTLs, hypothesizing that such a high CTL avidity enables the recognition of the highest-Hsp70 expressing human tumor cells. […]

[4] = system: COS cells transfected with both Hsp70 and HHD expression vectors; assay: Peptide processing assay on COS-transfected cells, TNF-α secretion by murine CTL; format: cell-based, simian
Description: After contact of murine CTL lines with transfected COS cell, CTL recognition of COS cells is expressed as CTL secretion of TNF-α dosed in supernatant (X Axis, TNF-α ranges from 0 to 500 pg/ml). The graphs represent TNF-α dosage by cytotoxic cell lines, respectively mCTL380, mCTL391 mCTL393 and mCTL134, after contact with COS cells. In each graph, upper to lower bars represent the different cells in contact with CTL, respectively: negative control (no COS cell), COS cells, COS cells transfected with Hsp70 expression plasmid, COS cells transfected with HHD expression plasmid, positive control (COS cells transfected with HHD and pulsed with the respective peptide), COS cells transfected with HHD and with Hsp70 expression plasmids.
Peptide Processing Assay on COS-Transfected Cells. 2.2×10^4 simian COS cells were plated in flat-bottom 96 well plates in DMEM 10% FCS, in quadruplicates for each condition. 18 hours later, the medium is discarded, and 100 ng of each DNA plasmid, encoding for Hsp70 and HLA class I molecules, is put in contact with COS cells in DMEM 10% Nuserum […] Chloroquine 10 mg/mL DEAE Dextran. After 4 hours of incubation at 37° C., transfection medium is discarded, and 50 μL PBS 10% DMSO is added for 2 minutes for integration of plasmids. It is then discarded and transfected COS cells are placed in DMEM 10% FCS for 40 hours. Transfected COS cells are then used with 5×10^4 murine CTL in a TNF-α secretion assay.
as §2

[5] = system: human CD8+ cells; assay: Generation of CTL from human PBMC with peptide- or polyepitope-pulsed dendritic cells, intracellular IFN-γ staining; format: cell-based; conditions: CD8+ cells stimulated with peptide-loaded dendritic cells
Protocol: The three graphs entitled hCTL380, hCTL391 and hCTL393 represent respectively the testing of p380, p391 and p393-specific human CTLs. P391 and p393 specific CTLs were tested towards EBV-B cells, whereas p380 specific CTLs were tested towards T2 cells. The number of IFN-γ producing CD8+ cells for 10^5 CD8+ cells upon activation, indicated on the X-axis, was measured, as assessed by staining cells for CD8 and intracellular IFN-γ.
Polyepitope induced human CTL were tested for their capacity to respond to T2 cells loaded with p380, p391 or p393 or the irrelevant HIVpol589 peptides in intracellular IFN-γ staining. The X axis represents the number of IFNγ-producing CTL/10^5 CD8+ cells. On the Y axis, upper to lower bars represent the results obtained when cells were loaded respectively with irrelevant HIV pol589 peptides, or with p380, p391 or p393 peptides.
Generation of CTL from Human Peripheral Blood Mononuclear Cells (PBMC). Fresh PBMC collected from healthy donnors under informed consent were serologically typed for the studied HLA-class I molecule, and purified using standard Ficoll-Paque (Amersham Pharmacia Biotech AB). Dendritic cells (DC) were prepared by cultivating plastic adherent PBMC in the presence of 500 U/mL GM-CSF (R&D Systems Inc. MN) and 500 U/mL IL-4 (R&D Systems Inc. MN) for 7 days such as described in Keogh et al. (30).
DC were then maturated for 2 days with 2 μg/mL anti-CD40 antibody and 100 ng/mL Poly I:C (Sigma-Aldrich). […] Autologous CD8+ purified T-cells (CD8 MicroBeads, Miltneyi Biotec Inc. CA) were stimulated weekly with DC pulsed for two hours with peptide (10 μM) and irradiated at 35Gy at a T:DC ratio of 10:1 in culture medium (CM; RPMI 1640 supplemented with 10% human AB serum, […] L-glutamine and gentamycin). 1×10^3 U/mL IL-6 and SU/mL IL-12 (R&D Systems Inc. MN) were added during the first week of culture. 20 U/mL clinical grade IL-2 (Proleukin, Chiron Corp.) and 10 ng/mL IL-7 (R&D Systems Inc. MN) were added during the next two weeks of culture. 7 days after the last stimulation with DC, peptide specific IFN-γ secreting CD8+ T cells were magnetically sorted following encounter of the peptide presented by HLA-A*0201+ B-EBV cells (IFN-γ Secretion Assay, Miltenyi Biotec Inc. CA). The characterization of peptide-specific T cells was tested 7 days after the purification step.
Intracellular IFN-g Staining. 5×10^4 T cells were incubated with 10^5 stimulating peptide loaded EBV-B cells or with 10^5 tumor cells in the presence of 20 μg/ml brefeldin-A (Sigma, Oakville, Canada). Six hours later, they were washed, stained with r-phycoerythrin-conjugated anti-CD8 antibody (Caltag Laboratories, Burlingame, Calif.) in PBS for 25 min at 4° C., washed and fixed with 4% PFA. Then, cells were permeabilized with PBS 0.5% BSA 0.2% saponin (Sigma, Oakville, Canada), and stained with allophycocyanin-conjugated anti-IFNg mAb (PharMingen, Mississauga, Canada) for 25 min at 4° C. Cells were analyzed on FACSCalibur (Becton Dickinson, Mountain View, Calif.).

[6] = molecular target: T2, HLA-A*0201/peptide complex (Homo sapiens, UniProt P04439, D140Y/D185E/D98H/E176V/E277Q/G131W/G231S/I119V/I121R/I166T/I218V/L300P/L318F/N151K/N90K/P208A/P217A/Q86G/Q94H/R138H/R169H/T345S); assay: Assessment of peptide/HLA class I complex stability (DC50); format: binding; conditions: half life (DC50) of the HLA-A*0201/peptide complex
T2 construct: Tap−/− cells expressing the studied HLA-class I molecule; endogenous in cells; host or cells: T2 cells (Tap-/-, HLA-A*0201)
Protocol: Assessment of Peptide/HLA class I Complex Stability. Tap−/− cells (10^6/mL) were incubated overnight with 100 μM of each peptide in serum-free RPMI 1640 medium supplemented with 100 ng/mL of […] at 37° C. Cells were then washed four times to remove free peptide, incubated with Brefeldin A (10 μg/mL) for 1 hour to block cell surface expression of newly synthesized HLA molecules, washed and incubated at 37° C. for 0, 2, 4 or 6 hours. Subsequently, cells were stained with the HLA specific mAb followed by FITC conjugated goat anti mouse Ig mAb. For each time point, peptide induced HLA expression was calculated as: Mean fluorescence of peptide preincubated cells—Mean fluorescence of cells treated in similar conditions in the absence of peptide. DC50 (dissociation complex; DC) was defined as the time required for the loss of 50% of the HLA-A*0201/peptide complexes stabilized at t=0.
as §1

LIGRKFGDPV [HSP 73]
Relative affinity [1]: >20

LLDVAPLSL [HSP 393]
induction of specific cytotoxic T cell immune response in HHD mice [2]: capable of generating a specific cytotoxic T cell immune response | presentation of the epitope at the surface of Hsp70 over-expressing human tumor cells [3]: epitope correctly presented at the surface of Hsp70 over-expressing tumors | processing of the peptide: recognition of Hsp70 + HHD transfected COS cells by the specific murine CTL line [4]: are epitopes | induction of specific human CTL [5]: capable of stimulating specific human CTL

SLFEGIDFYT [HSP 286]
Stability (hrs) [6]: >6 h hrs
